Structures can show the parent of a compound that is named as a salt.
Key:
[1] = Stability assessment of lesinurad sodium salt Form β on storage (XRPD); assay type: physicochemical; conditions: room temperature, 12 months
Procedure: (§1) Analytical Instrument: Panalytical Empyrean. The X-ray powder diffractogram was determined by mounting a sample of the crystalline material on a Si single crystal low-background holder and spreading out the sample into a thin layer with the aid of a microscope slide. The 2θ position was calibrated against Panalytical 640 Si powder standard. The sample irradiated with X-rays generated by a copper long-fine focus tube operated at 45 kV and 40 mA with a wavelength of Kα1=1.540589 angstroms and Kα2=1.544426 angstroms (Kα1/Kα2 intensity ratio is 0.50). The collimated X-ray source was passed through a programmed divergence slit set at 10 mm and the reflected radiation directed through a 5.5 mm anti-scattering slit. The sample was exposed for 16.3 seconds per 0.013° 2-theta increment (continuous scan mode) over the range 3 degrees to 40 degrees 2-theta in theta-theta mode. The running time was 3 minutes and 57 seconds. The instrument was equipped with an RTMS detector (X'Celerator). Control and data capture was accomplished by means of a Dell Optiplex 780 XP operating with data collector software.
A sample of the lesinurad sodium salt Form β was stored under room temperature for 12 months. The solid sample was analyzed by XRPD.

[2] = Stability assessment of Form III under stress conditions (XRPD); assay type: physicochemical; conditions: 14 days; for Final form: dish open, XRPD
Procedure: as §1
Two samples of lesinurad Form III were stored under 25° C./60% RH and 40° C./75% RH, respectively, with dish open for 14 days. The solid samples were analyzed by XRPD.

[3] = Hygroscopicity assessment by dynamic vapor sorption (DVS); assay type: physicochemical; conditions: 25° C.
Procedure: Dynamic Vapor Sorption (DVS) was measured via a SMS (Surface Measurement Systems) DVS Intrinsic. The relative humidity at 25° C. were calibrated against deliquescence point of LiCl, Mg(NO3)2 and KCl. Typical Parameters for DVS test are listed below.
Hygroscopicity of lesinurad Form III was investigated using dynamic vapor sorption (DVS).
Hygroscopicity criteria applied in this example refer to the standard in European pharmacopoeia: • deliquescent: sufficient water is absorbed to form a liquid, • very hygroscopic: increase in mass is equal to or greater than 15 percent, • hygroscopic: increase in mass is less than 15 percent and equal to or greater than 2 percent, • slightly hygroscopic: increase in mass is less than 2 percent and equal to or greater than 0.2 percent.

[4] = Inter-conversion of Form A and Form α of lesinurad sodium salt by stirring in water (XRPD); assay type: physicochemical
[5] = test system: gout patients; conditions: Phase III, gout patients without benefit from allopurinol and febuxostat, lesinurad alone; cited from earlier work

**Q.** Which “Stability under the stress conditions” value [1] does the source give for `O=C(O)CSc1nnc(Br)n1-c1ccc(C2CC2)c2ccccc12` [Form β, lesinurad sodium salt] here?
**A.** stable under the stress conditions

**Q.** And the Final form ([1]; XRPD)?
**A.** salt Form β

**Q.** With `O=C(O)CSc1nnc(Br)n1-c1ccc(C2CC2)c2ccccc12` [Form III, 2-((5-bromo-4-(4-cyclopropylnaphthalen-1-yl)-4H-1,2,4-triazol-3-yl)thio)acetic acid] as the molecule, how does the “Stability under the stress conditions” value ([2]; 25° C./60% RH and 40° C./75% RH) read?
**A.** stable under the stress conditions

**Q.** What about the Final form ([2]; 25° C./60% RH) of the same molecule?
**A.** Form III

**Q.** And the Final form ([2]; 40° C./75% RH)?
**A.** Form III

**Q.** What about the “Water uptake under 80% RH” value ([3]; 80% RH) of the same molecule?
**A.** 0.8%

**Q.** And the “Water uptake under 95% RH” value ([3]; 95% RH)?
**A.** 2.4%

**Q.** What about the “Hygroscopicity (European pharmacopoeia criteria)” value ([3]; 80% RH) of the same molecule?
**A.** slightly hygroscopic (increase in mass is less than 2 percent and equal to or greater than 0.2 percent)

**Q.** With `O=C(O)CSc1nnc(Br)n1-c1ccc(C2CC2)c2ccccc12` [Form α, lesinurad sodium salt] as the molecule, how does the “Relative stability in water” value ([4]; in water under ambient conditions) read?
**A.** more stable in comparison to Form A

**Q.** Which “Serum levels of uric acid” value [5] does the source give for `O=C(O)CSc1nnc(Br)n1-c1ccc(C2CC2)c2ccccc12` [lesinurad, 2-((5-bromo-4-(4-cyclopropylnaphthalen-1-yl)-4H-1,2,4-triazol-3-yl)thio)acetic acid] here?
**A.** significantly reduced serum levels of uric acid

**Q.** Which “Form conversion after stirring in water” value ([4]; water, 500 rpm, 24 hours, ambient conditions, XRPD) does the source give for `O=C(O)CSc1nnc(Br)n1-c1ccc(C2CC2)c2ccccc12` [Form A, lesinurad sodium salt, reference compound] here?
**A.** converts to Form α
